Earlier results as cited in patent US20110135768A1, “DIHYDRO-ISOALPHA ACID AND ACACIA NILOTICA EXTRACT BASED COMPOSITIONS AND METHODS FOR WEIGHT MANAGEMENT” (Metaproteomics, LLC, priority 2009, published 2011).
Ends that are not written are not given here.

Details: rats, intra-cerebroventricular administration

Substance: GLP-1: glucagon-like peptide-1, a 30 amino acid peptide derived from proglucagon gene (HAEGTFTSDVSSYLEGQAAKEFIAWLVKGR; ends and bridges not checked; UniProt P01275 98-127, looked up)
- body weight: reduce
- eating: inhibit
